# Measurements reported in ChEMBL document CHEMBL4346657, “Anticancer activity, dual prooxidant/antioxidant effect and apoptosis induction profile of new bichalcophene-5-carboxamidines” (Eur J Med Chem, 2019).
# Calls of active or inactive are those of the source. No cut-off for these calls is given here.
# Key:
# [1] = system: SW-620; experiment: Antiproliferative activity against human SW620 cells assessed as growth inhibition after 48 hrs by sulforhodamine B assay; format: functional; settings: SW-620, 48 h
# [2] = system: Malme-3M; experiment: Antiproliferative activity against human MALME-3M cells assessed as growth inhibition after 48 hrs by sulforhodamine B assay; format: functional
# [3] = system: HCT-116; experiment: Antiproliferative activity against human HCT116 cells assessed as growth inhibition after 48 hrs by sulforhodamine B assay; format: functional; settings: HCT-116, 48 h
# [4] = system: A498; experiment: Antiproliferative activity against human A498 cells assessed as growth inhibition after 48 hrs by sulforhodamine B assay; format: functional; settings: A498, 48 h
# [5] = system: COLO 205; experiment: Antiproliferative activity against human COLO205 cells assessed as growth inhibition after 48 hrs by sulforhodamine B assay; format: functional; settings: COLO 205, 48 h
# [6] = system: Hs-578T; experiment: Antiproliferative activity against human Hs578T cells assessed as growth inhibition after 48 hrs by sulforhodamine B assay; format: functional
# [7] = system: Erythrocyte; experiment: Haemolytic activity in human erythrocytes assessed as induction of hemolysis at 0.625 mM after 30 mins relative to H202; format: cell-based; settings: erythrocyte, 0.5 h, 625 µM
# [8] = system: NCI-H460; experiment: Antiproliferative activity against human NCI-H460 cells assessed as growth inhibition after 48 hrs by sulforhodamine B assay; format: functional; settings: NCI-H460, 48 h
# [9] = system: NCI-H522; experiment: Antiproliferative activity against human NCI-H522 cells assessed as growth inhibition after 48 hrs by sulforhodamine B assay; format: functional; settings: NCI-H522, 48 h
# [10] = system: UACC-62; experiment: Antiproliferative activity against human UACC62 cells assessed as growth inhibition after 48 hrs by sulforhodamine B assay; format: functional; settings: UACC-62, 48 h
# [11] = system: DU-145; experiment: Antiproliferative activity against human DU145 cells assessed as growth inhibition after 48 hrs by sulforhodamine B assay; format: functional; settings: DU-145, 48 h
# [12] = system: OVCAR-3; experiment: Antiproliferative activity against human OVCAR3 cells assessed as growth inhibition after 48 hrs by sulforhodamine B assay; format: functional; settings: OVCAR-3, 48 h
# [13] = system: UO-31; experiment: Antiproliferative activity against human UO31 cells assessed as growth inhibition after 48 hrs by sulforhodamine B assay; format: functional; settings: UO-31, 48 h
# [14] = system: HOP-62; experiment: Antiproliferative activity against human HOP62 cells assessed as growth inhibition after 48 hrs by sulforhodamine B assay; format: functional; settings: HOP-62, 48 h
# [15] = system: ACHN; experiment: Antiproliferative activity against human ACHN cells assessed as growth inhibition after 48 hrs by sulforhodamine B assay; format: functional
# [16] = system: OVCAR-8; experiment: Antiproliferative activity against human OVCAR8 cells assessed as growth inhibition after 48 hrs by sulforhodamine B assay; format: functional; settings: OVCAR-8, 48 h
# [17] = system: U-251; experiment: Antiproliferative activity against human U251 cells assessed as growth inhibition after 48 hrs by sulforhodamine B assay; format: functional; settings: U-251, 48 h
# [18] = system: RPMI-8226; experiment: Antiproliferative activity against human RPMI8226 cells assessed as growth inhibition after 48 hrs by sulforhodamine B assay; format: functional; settings: RPMI-8226, 48 h
# [19] = system: SNB-75; experiment: Antiproliferative activity against human SNB75 cells assessed as growth inhibition after 48 hrs by sulforhodamine B assay; format: functional; settings: SNB-75, 48 h
# [20] = system: SF-268; experiment: Antiproliferative activity against human SF268 cells assessed as growth inhibition after 48 hrs by sulforhodamine B assay; format: functional; settings: SF-268, 48 h
# [21] = system: EKVX; experiment: Antiproliferative activity against human EKVX cells assessed as growth inhibition after 48 hrs by sulforhodamine B assay; format: functional
# [22] = system: Panel NCI-60 (60 carcinoma cell lines); experiment: Antiproliferative activity against human NCI60 cells assessed as growth inhibition at 10 uM after 48 hrs by sulforhodamine B assay; format: functional; settings: read-out: GI
# [23] = system: SK-OV-3; experiment: Antiproliferative activity against human SKOV3 cells assessed as growth inhibition after 48 hrs by sulforhodamine B assay; format: functional; settings: SK-OV-3, 48 h
# [24] = system: SK-MEL-2; experiment: Antiproliferative activity against human SK-MEL-2 cells assessed as growth inhibition after 48 hrs by sulforhodamine B assay; format: functional; settings: SK-MEL-2, 48 h
# [25] = system: PC-3; experiment: Antiproliferative activity against human PC3 cells assessed as growth inhibition after 48 hrs by sulforhodamine B assay; format: functional; settings: PC-3, 48 h
# [26] = system: Erythrocyte; experiment: Haemolytic activity in human erythrocytes assessed as induction of hemolysis at 1.25 mM after 30 mins relative to H202; format: cell-based; settings: erythrocyte, 0.5 h, 1250 µM
# [27] = Antioxidant activity assessed as ABTS radical scavenging activity by spectrophotometric analysis relative to control; format: functional; design: concentration or dose not given beside the values; settings: dose or concentration not given here
# [28] = system: NCI-H226; experiment: Antiproliferative activity against human NCI-H226 cells assessed as growth inhibition after 48 hrs by sulforhodamine B assay; format: functional; settings: NCI-H226, 48 h
# [29] = system: HT-29; experiment: Antiproliferative activity against human HT-29 cells assessed as growth inhibition after 48 hrs by sulforhodamine B assay; format: functional; settings: HT-29, 48 h
# [30] = Antioxidant activity assessed as ABTS radical scavenging activity by spectrophotometric method relative to ascorbic acid; format: functional
# [31] = system: TK-10; experiment: Antiproliferative activity against human TK10 cells assessed as growth inhibition after 48 hrs by sulforhodamine B assay; format: functional; settings: TK-10, 48 h
# [32] = system: HCT-116; experiment: […] in CDK1 mRNA expression in human HCT116 cells at 100 nM after 6 hrs hrs by SYBR green dye-based qRT-PCR analysis relative to control; format: functional
# [33] = system: NCI/ADR-RES; experiment: Antiproliferative activity against human NCI-ADR-RES cells assessed as growth inhibition after 48 hrs by sulforhodamine B assay; format: functional
# [34] = Haemolytic activity in human erythrocytes assessed as induction of hemolysis at 10 mM after 30 mins relative to H202; format: cell-based, Erythrocyte; settings: read-out: Activity
# [35] = Pro-oxidant activity assessed as increase in bleomycin-Fe2+ induced calf thymus DNA damage at 2 mM after 1 hr by thiobarbituric acid based absorbance analysis
# [36] = system: SF-295; experiment: Antiproliferative activity against human SF295 cells assessed as growth inhibition after 48 hrs by sulforhodamine B assay; format: functional; settings: SF-295, 48 h
# [37] = system: MDA-MB-435; experiment: Antiproliferative activity against human MDA-MB-435 cells assessed as growth inhibition after 48 hrs by sulforhodamine B assay; format: functional; settings: MDA-MB-435, 48 h
# [38] = system: NCI-H322M; experiment: Antiproliferative activity against human NCI-H322M cells assessed as growth inhibition after 48 hrs by sulforhodamine B assay; format: functional
# [39] = system: OVCAR-4; experiment: Antiproliferative activity against human OVCAR4 cells assessed as growth inhibition after 48 hrs by sulforhodamine B assay; format: functional; settings: OVCAR-4, 48 h
# [40] = system: K562; experiment: Antiproliferative activity against human K562 cells assessed as growth inhibition after 48 hrs by sulforhodamine B assay; format: functional, cell-based; settings: K562, 48 h
# [41] = system: CCRF-CEM; experiment: Antiproliferative activity against human CCRF-CEM cells assessed as growth inhibition after 48 hrs by sulforhodamine B assay; format: functional
# [42] = Antioxidant activity assessed as DPPH radical scavenging activity incubated in dark for 30 mins by spectrophotometric method relative to ascorbic acid; format: functional
# [43] = system: MCF7; experiment: Antiproliferative activity against human MCF7 cells assessed as growth inhibition after 48 hrs by sulforhodamine B assay; format: functional; settings: MCF7, 48 h
structure (smiles),measurement,setting,value
N=C(N)c1ccc(-c2ccc(-c3ccccc3)o2)o1,GI50,[1],1.79 µM
same,GI50,[2],1.75 µM
same,GI50,[3],2.07 µM
same,GI50,[4],3.03 µM
same,GI50,[5],1.78 µM
same,GI50,[6],3.81 µM
same,Activity,[7],Non-Toxic
same,GI50,[8],2.45 µM
same,GI50,[9],1.94 µM
same,GI50,[10],1.93 µM
same,GI50,[11],3.3 µM
same,GI50,[12],3.13 µM
same,GI50,[13],1.54 µM
same,GI50,[14],3.59 µM
same,GI50,[15],2.56 µM
same,GI50,[16],4 µM
same,GI50,[17],2.22 µM
same,GI50,[18],2.89 µM
same,GI50,[19],1.6 µM
same,GI50,[20],2.98 µM
same,GI50,[21],2.34 µM
same,inhibition of growth at 10 µM,[22],68.2%
same,GI50,[23],4.3 µM
same,GI50,[24],2.25 µM
same,GI50,[25],2.64 µM
same,Activity,[26],Non-Toxic
same,inhibition,[27],41.3%
same,GI50,[28],5.7 µM
same,GI50,[29],2.11 µM
same,fold change (FC),[30],0.4
same,GI50,[31],3.32 µM
same,fold change (FC),[32],0.97
same,GI50,[33],2.82 µM
same,"hemolysis at 0.5 h, 10000 µM",[34],66.7%
same,Activity,[35],Active
same,GI50,[36],1.81 µM
same,GI50,[37],0.99 µM
same,GI50,[38],2.12 µM
same,GI50,[39],3.48 µM
same,IC50,[40]; read-out: IC50,0.66 µM
same,GI50,[41],3.58 µM
same,fold change (FC),[42],0.3
same,GI50,[43],1.68 µM
N=C(N)c1ccc(-c2ccc(-c3ccc4ccccc4c3)s2)s1,GI50,[1],1.91 µM
same,GI50,[2],3.1 µM
same,GI50,[3],1.77 µM
same,GI50,[4],1.7 µM
same,GI50,[5],1.63 µM
same,GI50,[6],2.07 µM
same,Activity,[7],Non-Toxic
same,GI50,[8],1.95 µM
same,GI50,[9],1.96 µM
same,GI50,[10],2.1 µM
same,GI50,[11],1.83 µM
same,GI50,[12],1.89 µM
same,GI50,[13],1.96 µM
same,GI50,[14],2.08 µM
same,GI50,[15],2.53 µM
same,GI50,[16],2.27 µM
same,GI50,[17],1.81 µM
same,GI50,[18],2.3 µM
same,GI50,[19],1.93 µM
same,GI50,[20],2.25 µM
same,GI50,[21],2.46 µM
same,inhibition of growth at 10 µM,[22],96.7%
same,GI50,[23],20.2 µM
same,GI50,[24],2.52 µM
same,GI50,[25],2.19 µM
same,Activity,[26],Non-Toxic
same,inhibition,[27],72.8%
same,GI50,[28],33.6 µM
same,GI50,[29],1.71 µM
same,fold change (FC),[30],0.8
same,GI50,[31],2.23 µM
same,fold change (FC),[32],0.93
same,GI50,[33],2.02 µM
same,"hemolysis at 0.5 h, 10000 µM",[34],21.1%
same,Activity,[35],Active
same,GI50,[36],2.27 µM
same,GI50,[37],1.91 µM
same,GI50,[38],1.64 µM
same,GI50,[39],1.91 µM
same,IC50,[40]; read-out: IC50,1.53 µM
same,GI50,[41],1.87 µM
same,fold change (FC),[42],0.6
same,GI50,[43],1.75 µM
N=C(N)c1ccc(-c2ccc(-c3cncc4ccccc34)s2)s1,GI50,[1],1.08 µM
same,GI50,[2],1.61 µM
same,GI50,[3],1.61 µM
same,GI50,[4],1.69 µM
same,GI50,[5],0.75 µM
same,GI50,[6],2.22 µM
same,Activity,[7],Non-Toxic
same,GI50,[8],0.88 µM
same,GI50,[9],1.65 µM
same,GI50,[10],2.31 µM
same,GI50,[11],1.55 µM
same,GI50,[12],1.65 µM
same,GI50,[13],1.39 µM
same,GI50,[14],1.7 µM
same,GI50,[15],1.48 µM
same,GI50,[16],1.83 µM
same,GI50,[17],1.72 µM
same,GI50,[18],1.78 µM
same,GI50,[19],1.93 µM
same,GI50,[20],1.63 µM
same,GI50,[21],1.33 µM
same,inhibition of growth at 10 µM,[22],-59.2%
same,GI50,[23],1.58 µM
same,GI50,[24],2 µM
same,GI50,[25],1.56 µM
same,Activity,[26],Non-Toxic
same,inhibition,[27],69.9%
same,GI50,[28],1.91 µM
same,GI50,[29],0.56 µM
same,fold change (FC),[30],0.8
same,GI50,[31],1.84 µM
same,fold change (FC),[32],0.16
same,GI50,[33],1.68 µM
same,"hemolysis at 0.5 h, 10000 µM",[34],12.3%
same,Activity,[35],Active
same,GI50,[36],1.8 µM
same,GI50,[37],2.03 µM
same,GI50,[38],1.66 µM
same,GI50,[39],0.3 µM
same,IC50,[40]; read-out: IC50,0.24 µM
same,IC50,[40]; read-out: pIC50 (converted),38000 µM
same,GI50,[41],0.36 µM
same,fold change (FC),[42],0.6
same,GI50,[43],0.28 µM
